# Assay results: patent publication US20240066136A1, “MODIFIED PROTEINS AND PROTEIN DEGRADERS” (Cullgen (Shanghai), Inc., priority 2020, published 2024)
# Biological target: Human DDB1 (Homo sapiens (Human), UniProt Q16531)
# Test: Surface plasmon resonance (SPR) binding assay to immobilized His-DDB1
# Conditions: SPR, DDB1 binding moieties with linkers and/or target protein binding moiety; read-out: Binding (Kd)
# How it was run: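 Baculovirus-expressed His-DDB1 (High5 cells) amine-coupled to 11,000–13,000 RU on a CM5 chip; compounds injected in multi-cycle format without regeneration at 25° C in HBS-EP pH 7.4 (120 s association/dissociation). Double-referenced, solvent-corrected data fit to steady-state affinity model for KD.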
# Human DDB1, sequence (Q16531 whole entry): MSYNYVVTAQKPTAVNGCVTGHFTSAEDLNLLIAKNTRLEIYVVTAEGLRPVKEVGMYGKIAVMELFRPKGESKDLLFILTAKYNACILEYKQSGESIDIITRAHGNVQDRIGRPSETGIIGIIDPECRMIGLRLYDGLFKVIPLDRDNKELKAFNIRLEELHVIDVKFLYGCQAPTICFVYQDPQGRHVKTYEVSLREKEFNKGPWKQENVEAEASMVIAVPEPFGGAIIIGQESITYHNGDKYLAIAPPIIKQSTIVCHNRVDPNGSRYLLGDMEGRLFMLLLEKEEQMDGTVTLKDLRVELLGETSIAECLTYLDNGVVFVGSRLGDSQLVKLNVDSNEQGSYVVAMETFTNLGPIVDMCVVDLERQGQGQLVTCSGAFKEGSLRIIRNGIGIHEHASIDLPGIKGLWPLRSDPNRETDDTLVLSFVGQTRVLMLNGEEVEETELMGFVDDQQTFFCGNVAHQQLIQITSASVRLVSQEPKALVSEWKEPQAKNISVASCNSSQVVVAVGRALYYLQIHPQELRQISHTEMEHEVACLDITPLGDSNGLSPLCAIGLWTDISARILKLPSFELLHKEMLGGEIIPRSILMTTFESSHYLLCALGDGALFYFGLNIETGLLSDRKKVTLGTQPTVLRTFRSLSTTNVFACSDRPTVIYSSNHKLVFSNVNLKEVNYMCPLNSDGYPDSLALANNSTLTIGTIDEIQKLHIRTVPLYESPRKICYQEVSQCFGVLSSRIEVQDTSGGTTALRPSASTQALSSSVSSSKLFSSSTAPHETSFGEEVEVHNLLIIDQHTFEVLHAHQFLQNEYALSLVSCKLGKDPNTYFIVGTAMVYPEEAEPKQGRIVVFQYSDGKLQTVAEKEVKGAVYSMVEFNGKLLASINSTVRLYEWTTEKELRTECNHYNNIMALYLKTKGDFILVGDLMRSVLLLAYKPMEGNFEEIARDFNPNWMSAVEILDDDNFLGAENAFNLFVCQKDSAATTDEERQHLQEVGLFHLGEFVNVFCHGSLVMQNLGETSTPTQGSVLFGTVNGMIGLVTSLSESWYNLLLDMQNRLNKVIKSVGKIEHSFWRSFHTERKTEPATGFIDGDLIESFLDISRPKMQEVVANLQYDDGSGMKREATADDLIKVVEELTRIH
row,Compound,Kd
1,"CC(=O)Nc1cc(NCCOCCOCCOCCN)ccc1C(=O)Nc1ncc([N+](=O)[O-])s1 [BL-9, 2-Acetamido-4-((2-(2-(2-(2-aminoethoxy)ethoxy)ethoxy)ethyl)amino)-N-(5-nitrothiazol-2-yl)benzamide]",< 20 µM
2,"CC(=O)Nc1cc(NCCOCCNC(=O)C[C@@H]2N=C(c3ccc(Cl)cc3)c3c(sc(C)c3C)-n3c(C)nnc32)ccc1C(=O)Nc1nc(C)c([N+](=O)[O-])s1 [D-32, (S)-2-Acetamido-4-((2-(2-(2-(4-(4-chlorophenyl)-2,3,9-trimethyl-6H-thieno[3,2-f][1,2,4]triazolo[4,3-a][1,4]diazepin-6-yl)acetamido)ethoxy)ethyl)amino)-N-(4-methyl-5-nitrothiazol-2-yl)benzamide]",20 to 100 µM
3,"CC(=O)Nc1cc(NCCCCCCCCCCNC(=O)C[C@@H]2N=C(c3ccc(Cl)cc3)c3c(sc(C)c3C)-n3c(C)nnc32)ccc1C(=O)Nc1nc(C)c([N+](=O)[O-])s1 [D-31, (S)-2-Acetamido-4-((10-(2-(4-(4-chlorophenyl)-2,3,9-trimethyl-6H-thieno[3,2-f][1,2,4]triazolo[4,3-a][1,4]diazepin-6-yl)acetamido)decyl)amino)-N-(4-methyl-5-nitrothiazol-2-yl)benzamide]",20 to 100 µM
4,"CC(=O)Nc1cc(NCCOCCOCCOCCOCCNC(=O)CN2CCN(c3cccc(-c4cnc5ccc(N6CCC[C@@H]6c6cccc(F)c6)nn45)n3)CC2)ccc1C(=O)Nc1nc(C)c([N+](=O)[O-])s1 [D-23, (R)-2-Acetamido-4-((1-(4-(6-(6-(2-(3-fluorophenyl)pyrrolidin-1-yl)imidazo[1,2-b]pyridazin-3-yl)pyridin-2-yl)piperazin-1-yl)-2-oxo-6,9,12,15-tetraoxa-3-azaheptadecan-17-yl)amino)-N-(4-methyl-5-nitrothiazol-2-yl)benzamide]",20 to 100 µM

# Same assay, conditions: SPR, steady state affinity model, 25° C.; read-out: Binding (DDB1 binder activities, Kd)
row,Compound,Kd
1,O=C(Nc1ncc(Cl)s1)c1ccccc1O [B-10],20 to 100 µM
2,"CC(=O)Nc1ccccc1C(=O)Nc1ccc([N+](=O)[O-])cc1 [B-125, 2-Acetamido-N-(4-nitrophenyl)benzamide]",< 20 µM
3,"CCCCNc1ccc(OC(C)=O)c(C(=O)Nc2ncc([N+](=O)[O-])s2)c1 [B-18, 4-(butylamino)-2-((5-nitrothiazol-2-yl)carbamoyl)phenylacetate]",20 to 100 µM
4,"CC(=O)Nc1ccccc1C(=O)Nc1ccc(C(C)C)s1 [B-129, 2-Acetamido-N-(5-isopropylthiophen-2-yl)benzamide]",20 to 100 µM
5,"Cc1cc(N(C)C)ccc1C(=O)Nc1ncc([N+](=O)[O-])s1 [B-167, 4-(Dimethylamino)-2-methyl-N-(5-nitrothiazol-2-yl)benzamide]",> 100 µM
6,"CCOc1ccccc1C(=O)N(C)c1ncc([N+](=O)[O-])s1 [B-102, 2-Ethoxy-N-methyl-N-(5-nitrothiazol-2-yl)benzamide]",< 20 µM
7,"CN(CCc1ccccc1)C1CCCN(C(=O)CCc2nc3ccccc3[nH]2)C1 (stereo not drawn) [B-139, 3-(1H-benzo[d]imidazol-2-yl)-1-(3-(methyl(phenethyl)amino)piperidin-1-yl)propan-1-one]",< 20 µM
8,"CNC(=O)Nc1ccccc1C(=O)Nc1ncc([N+](=O)[O-])s1 [B-66, 2-(3-methylureido)-N-(5-nitrothiazol-2-yl)benzamide]",< 20 µM
9,"CC(=O)Nc1ccccc1C(=O)Nc1nc(Br)c([N+](=O)[O-])s1 [B-30, 2-acetamido-N-(4-bromo-5-nitrothiazol-2-yl)benzamide]",20 to 100 µM
10,"CC(=O)Nc1ccccc1C(=O)Nc1ncccn1 [B-56, 2-acetamido-N-(pyrimidin-2-yl)benzamide]",> 100 µM
11,"O=C(O)CCc1ccccc1C(=O)Nc1ncc([N+](=O)[O-])s1 [B-88, 3-(2-((5-Nitrothiazol-2-yl)carbamoyl)phenyl)propanoic acid]",20 to 100 µM
12,"CNC(=O)CCCNC(=O)c1nnn2c1CN(C(=O)OCCCCCC(C)C)CC2 [B-144, 6-methylheptyl3-((4-(methylamino)-4-oxobutyl)carbamoyl)-6,7-dihydro-[1,2,3]triazolo[1,5-a]pyrazine-5(4H)-carboxylate]",20 to 100 µM
13,"CC(=O)Nc1ccccc1C(=O)Nc1cccc([N+](=O)[O-])c1 [B-124, 2-Acetamido-N-(3-nitrophenyl)benzamide]",< 20 µM
14,"CNC(=O)c1ccc(-c2cccc(O)c2)nc1NCC1CC1 [B-143, 2-((cyclopropylmethyl)amino)-6-(3-hydroxyphenyl)-N-methylnicotinamide]",20 to 100 µM
15,"CC(=O)Nc1ccccc1C(=O)Nc1ncc(C)s1 [B-42, 2-Acetamido-N-(5-methylthiazol-2-yl)benzamide]",20 to 100 µM
16,"CNc1ccccc1C(=O)Nc1ncc([N+](=O)[O-])s1 [B-68, 2-(Methylamino)-N-(5-nitrothiazol-2-yl)benzamide]",20 to 100 µM
17,"CNS(=O)(=O)c1ccccc1C(=O)Nc1ncc([N+](=O)[O-])s1 [B-81, 2-(N-Methylsulfamoyl)-N-(5-nitrothiazol-2-yl)benzamide]",20 to 100 µM
18,"Cc1ccc(C(=O)Nc2ncc([N+](=O)[O-])s2)c(C)c1 [B-172, 2,4-Dimethyl-N-(5-nitrothiazol-2-yl)benzamide]",20 to 100 µM
19,"CC(=O)Nc1ccccc1C(=O)Nc1ccc(Br)cn1 [B-55, 2-Acetamido-N-(5-bromopyridin-2-yl)benzamide]",20 to 100 µM
20,"CC(=O)Nc1ccccc1C(=O)Nc1ncc(S(C)(=O)=O)s1 [B-47, 2-Acetamido-N-(5-(methylsulfonyl)thiazol-2-yl)benzamide]",> 100 µM

row,Compound,Kd
1,"Cc1cc(F)ccc1C(=O)Nc1ncc([N+](=O)[O-])s1 [B-171, 4-Fluoro-2-methyl-N-(5-nitrothiazol-2-yl)benzamide]",20 to 100 µM
2,"O=C1CCCCN1c1ncc([N+](=O)[O-])s1 [B-99, 1-(5-Nitrothiazol-2-yl)piperidin-2-one]",20 to 100 µM
3,2-Acetamido-3-butyramido-N-(5-nitrothiazol-2-yl)benzamide [B-146],20 to 100 µM
4,"CC(=O)Nc1ccccc1C(=O)Nc1nc(-c2ccccc2)cs1 [B-46, 2-acetamido-N-(4-phenylthiazol-2-yl)benzamide]",20 to 100 µM
5,"CCCNC(=O)c1cccc(C(=O)Nc2ncc([N+](=O)[O-])s2)c1NC(C)=O [B-145, 2-Acetamido-N^1-(5-nitrothiazol-2-yl)-N^3-propylisophthalamide]",20 to 100 µM
6,"NS(=O)(=O)c1ccccc1C(=O)Nc1ncc([N+](=O)[O-])s1 [B-80, N-(5-Nitrothiazol-2-yl)-2-sulfamoylbenzamide]",20 to 100 µM
7,"Cc1cc(N2CCOCC2)ccc1C(=O)Nc1ncc([N+](=O)[O-])s1 [B-162, 2-Methyl-4-morpholino-N-(5-nitrothiazol-2-yl)benzamide]",> 100 µM
8,"CCCCNc1ccc(C(=O)Nc2nc(Br)c([N+](=O)[O-])s2)c(-c2ccccc2)c1 [B-113, N-(4-Bromo-5-nitrothiazol-2-yl)-5-(butylamino)-[1,1′-biphenyl]-2-carboxamide]",20 to 100 µM
9,"O=C(Nc1ncc([N+](=O)[O-])s1)c1ccccc1-c1ccccc1 [B-86, N-(5-Nitrothiazol-2-yl)-[1,1′-biphenyl]-2-carboxamide]",< 20 µM
10,"O=C(Nc1ncc([N+](=O)[O-])s1)c1ccccc1C(F)(F)F [B-89, N-(5-Nitrothiazol-2-yl)-2-(trifluoromethyl)benzamide]",20 to 100 µM
11,"CC(=O)Nc1ccccc1C(=O)Nc1nc(C2CC2)c([N+](=O)[O-])s1 [B-32, 2-Acetamido-N-(4-cyclopropyl-5-nitrothiazol-2-yl)benzamide]",20 to 100 µM
12,"CC(C)C(=O)Nc1ccccc1C(=O)Nc1ncc([N+](=O)[O-])s1 [B-61, 2-Isobutyramido-N-(5-nitrothiazol-2-yl)benzamide]",20 to 100 µM
13,"CCCCNc1ccc(C(=O)Nc2nc(C(F)(F)F)c([N+](=O)[O-])s2)c(-c2ccccc2)c1 [B-114, 5-(Butylamino)-N-(5-nitro-4-(trifluoromethyl)thiazol-2-yl)-[1,1′-biphenyl]-2-carboxamide]",< 20 µM
14,"CC(C)C(=O)NCCC1CN(Cc2cccc3[nH]ccc23)Cc2ccnn21 (stereo not drawn) [B-142, N-(2-(5-((1H-indol-4-yl)methyl)-4,5,6,7-tetrahydropyrazolo[1,5-a]pyrazin-7-yl)ethyl)isobutyramide]",20 to 100 µM
15,"CN(C)S(=O)(=O)c1ccccc1C(=O)Nc1ncc([N+](=O)[O-])s1 [B-82, 2-(N,N-dimethylsulfamoyl)-N-(5-nitrothiazol-2-yl)benzamide]",20 to 100 µM
16,"CCCCNc1ccc(C(=O)Nc2ccc([N+](=O)[O-])s2)c(-c2ccccc2)c1 [B-135, 5-(Butylamino)-N-(5-nitrothiophen-2-yl)-[1,1′-biphenyl]-2-carboxamide]",20 to 100 µM
17,"Cc1cc(N2CCN(C)CC2)ccc1C(=O)Nc1ncc([N+](=O)[O-])s1 [B-163, 2-Methyl-4-(4-methylpiperazin-1-yl)-N-(5-nitrothiazol-2-yl)benzamide]",> 100 µM
18,"O=C(Nc1ncc([N+](=O)[O-])s1)c1ccccc1 [B-3, N-(5-Nitrothiazol-2-yl)benzamide]",20 to 100 µM
19,"CC(C)Cc1ccccc1C(=O)N(C)c1ncc([N+](=O)[O-])s1 [B-106, 2-Isobutyl-N-methyl-N-(5-nitrothiazol-2-yl)benzamide]",< 20 µM
20,"CCCNC(=O)c1cccc(C(=O)Nc2ncc([N+](=O)[O-])s2)c1O [B-15, 2-hydroxy-N^1-(5-nitrothiazol-2-yl)-N^3-propylisophthalamide]",20 to 100 µM

# Same assay, conditions: read-out: Binding (DDB1 binder activities, Kd)
row,Compound,Kd
1,"CCCNC(=O)c1ccc(C(=O)Nc2ncc([N+](=O)[O-])s2)c(OC(C)=O)c1 [B-12, 2-((5-Nitrothiazol-2-yl)carbamoyl)-5-(propylcarbamoyl)phenyl acetate]",< 20 µM
